Test results from US20080153896A1, “Polymorphic Forms of an HMG-CoA Reductase Inhibitor and Uses Thereof” (priority 2006, published 2008).

Assay: Stability (integrity) testing of amorphous and polymorphic form under storage conditions, RP-HPLC
Type: physicochemical
Design: key to Impurity RRT 0.738 / Impurity RRT 0.949 / Impurity RRT 1.050 / Impurity RRT 1.550 / Impurity RRT 0.136 / Impurity RRT 0.720 / Impurity RRT 0.706 / Impurity RRT 1.18 / Impurity RRT 1.826: % of total UV absorption (HPLC peak area)
Experimental: The integrity of the different forms of the (3R, 5R)-7-[2-(4-fluorophenyl)-5-isopropyl-3-phenyl-4-[(4-hydroxymethylphenylamino)carbonyl]-pyrrol-1-yl]-3,5-dihydroxy-heptanoic acid, hemi calcium salt, was tested under different atmospheric conditions to determine the stability of the amorphous and polymorphic form of the drug in various storage environments. Reversed Phase-HPLC (RP-HPLC) was used to separate (3R, 5R)-7-[2-(4-fluorophenyl)-5-isopropyl-3-phenyl-4-[(4-hydroxymethylphenylamino)carbonyl]-pyrrol-1-yl]-3,5-dihydroxy-heptanoic acid, hemi calcium salt, from smaller molecules representing breakdown products as well as oxidized drug. The relative amount of the drug was reported as a percent of total absorption by UV. The total peak area of all UV absorption impurities was used to define total impurity of the drug. Impurities are defined by their relative retention time (RRT) compared to native drug. Samples were injected onto a C18 column using standard temperature, gradient and run-time conditions.
The results of this integrity testing for the amorphous form of (3R, 5R)-7-[2-(4-fluorophenyl)-5-isopropyl-3-phenyl-4-[(4-hydroxymethylphenylamino)carbonyl]-pyrrol-1-yl]-3,5-dihydroxy-heptanoic acid, hemi calcium salt, is shown in Table 5.
Three separate batches of polymorphic Form I of (3R, 5R)-7-[2-(4-fluorophenyl)-5-isopropyl-3-phenyl-4-[(4-hydroxymethylphenylamino)carbonyl]-pyrrol-1-yl]-3,5-dihydroxy-heptanoic acid, hemi calcium salt, were prepared and tested under the same atmospheric conditions described for the amorphous form.

[1] = 25° C./60% RH 3M, hemi calcium salt
[2] = 25° C./60% RH 9M, hemi calcium salt

With CC(C)c1c(C(=O)Nc2ccc(CO)cc2)c(-c2ccccc2)c(-c2ccc(F)cc2)n1CC[C@@H](O)C[C@@H](O)CC(=O)[O-].CC(C)c1c(C(=O)Nc2ccc(CO)cc2)c(-c2ccccc2)c(-c2ccc(F)cc2)n1CC[C@@H](O)C[C@@H](O)CC(=O)[O-].[Ca+2] [PP00405, (3R, 5R)-7-[2-(4-fluorophenyl)-5-isopropyl-3-phenyl-4-[(4-hydroxymethylphenylamino)carbonyl]-pyrrol-1-yl]-3,5-dihydroxy-heptanoic acid, hemi calcium salt] the Description (5° C. 1M) was “White”, the “Impurity RRT 1.094” value (5° C. 1M) was 0.157 and the “Impurity RRT 1.437” value (5° C. 1M) was 0.155. The “Impurity RRT 1.593” value (5° C. 1M) was 0.082, the “Impurity RRT 1.694” value (5° C. 1M) was 0.069 and the Assay (5° C. 1M, hemi calcium salt) was 98.31 % W/W. The “Highest Impurity” value (5° C. 1M, hemi calcium salt) was 0.360, the “Impurity RRT 0.935” value (5° C. 1M, hemi calcium salt) was 0.360 and the “Impurity RRT 1.045” value (5° C. 1M, hemi calcium salt) was 0.357. The “Impurity RRT 1.64” value (5° C. 1M, hemi calcium salt) was 0.057, the “Total Impurity” value (5° C. 1M, hemi calcium salt) was 1.237 and the Water (5° C. 1M, hemi calcium salt) was 4.81 % W/W. For the same compound, the Description (5° C. 2M) was “White”, the “Impurity RRT 1.094” value (5° C. 2M) was 0.161 and the “Impurity RRT 1.180” value (5° C. 2M) was 0.048. The “Impurity RRT 1.437” value (5° C. 2M) was 0.164, the “Impurity RRT 1.593” value (5° C. 2M) was 0.085 and the “Impurity RRT 1.694” value (5° C. 2M) was 0.067. The Assay (5° C. 2M, hemi calcium salt) was 98.25 % W/W, the “Highest Impurity” value (5° C. 2M, hemi calcium salt) was 0.380 and the “Impurity RRT 0.935” value (5° C. 2M, hemi calcium salt) was 0.380. The “Impurity RRT 1.045” value (5° C. 2M, hemi calcium salt) was 0.375, the “Impurity RRT 1.64” value (5° C. 2M, hemi calcium salt) was 0.051 and the “Total Impurity” value (5° C. 2M, hemi calcium salt) was 1.33. The Water (5° C. 2M, hemi calcium salt) was 4.61 % W/W, the Description (5° C. 3M) was “White” and the “Impurity RRT 1.094” value (5° C. 3M) was 0.149. The “Impurity RRT 1.437” value (5° C. 3M) was 0.169, the “Impurity RRT 1.593” value (5° C. 3M) was 0.077 and the “Impurity RRT 1.694” value (5° C. 3M) was 0.056. For the same compound, the “Total Impurity” value (5° C. 3M) was 1.35, the Assay (5° C. 3M, hemi calcium salt) was 98.20 % W/W and the “Highest Impurity” value (5° C. 3M, hemi calcium salt) was 0.469. For the same compound, the “Impurity RRT 0.935” value (5° C. 3M, hemi calcium salt) was 0.385, the “Impurity RRT 1.045” value (5° C. 3M, hemi calcium salt) was 0.469 and the “Impurity RRT 1.64” value (5° C. 3M, hemi calcium salt) was 0.047. For the same compound, the Water (5° C. 3M, hemi calcium salt) was 4.97 % W/W, the Description (5° C. 4M) was “White” and the “Impurity RRT 1.094” value (5° C. 4M) was 0.169. The “Impurity RRT 1.437” value (5° C. 4M) was 0.132, the “Impurity RRT 1.593” value (5° C. 4M) was 0.071 and the “Impurity RRT 1.694” value (5° C. 4M) was 0.071. The Assay (5° C. 4M, hemi calcium salt) was 98.24 % W/W, the “Highest Impurity” value (5° C. 4M, hemi calcium salt) was 0.419 and the “Impurity RRT 0.935” value (5° C. 4M, hemi calcium salt) was 0.419. For the same compound, the “Impurity RRT 1.045” value (5° C. 4M, hemi calcium salt) was 0.409, the “Impurity RRT 1.640” value (5° C. 4M, hemi calcium salt) was 0.067 and the “Total Impurity” value (5° C. 4M, hemi calcium salt) was 1.338. The Water (5° C. 4M, hemi calcium salt) was 4.43 % W/W, the Description (5° C. 5M) was “White” and the “Impurity RRT 1.094” value (5° C. 5M) was 0.105. For the same compound, the “Impurity RRT 1.437” value (5° C. 5M) was 0.155, the “Impurity RRT 1.550” value (5° C. 5M) was 0.587 and the “Impurity RRT 1.694” value (5° C. 5M) was 0.045. For the same compound, the Assay (5° C. 5M, hemi calcium salt) was 98.29 % W/W, the “Highest Impurity” value (5° C. 5M, hemi calcium salt) was 0.587 and the “Impurity RRT 0.935” value (5° C. 5M, hemi calcium salt) was 0.289. For the same compound, the “Impurity RRT 1.045” value (5° C. 5M, hemi calcium salt) was 0.312, the “Impurity RRT 1.640” value (5° C. 5M, hemi calcium salt) was 0.024 and the “Total Impurity” value (5° C. 5M, hemi calcium salt) was 1.517. For the same compound, the Water (5° C. 5M, hemi calcium salt) was 5.55 % W/W, the Description (5° C. 6M) was “White” and the “Impurity RRT 1.094” value (5° C. 6M) was 0.153. For the same compound, the “Impurity RRT 1.437” value (5° C. 6M) was 0.170, the “Impurity RRT 1.593” value (5° C. 6M) was 0.081 and the “Impurity RRT 1.694” value (5° C. 6M) was 0.070. The Water (5° C. 6M) was 5.04 % W/W, the Assay (5° C. 6M, hemi calcium salt) was 98.02 % W/W and the “Highest Impurity” value (5° C. 6M, hemi calcium salt) was 0.423. For the same compound, the “Impurity RRT 0.935” value (5° C. 6M, hemi calcium salt) was 0.423, the “Impurity RRT 1.045” value (5° C. 6M, hemi calcium salt) was 0.390 and the “Impurity RRT 1.640” value (5° C. 6M, hemi calcium salt) was 0.053. The “Total Impurity” value (5° C. 6M, hemi calcium salt) was 1.340, the Description (5° C. 9M) was “White” and the “Impurity RRT 1.094” value (5° C. 9M) was 0.161. For the same compound, the “Impurity RRT 1.180” value (5° C. 9M) was 0.055, the “Impurity RRT 1.437” value (5° C. 9M) was 0.170 and the “Impurity RRT 1.593” value (5° C. 9M) was 0.065. For the same compound, the “Impurity RRT 1.694” value (5° C. 9M) was 0.064, the Assay (5° C. 9M, hemi calcium salt) was 98.12 % W/W and the “Highest Impurity” value (5° C. 9M, hemi calcium salt) was 0.407. For the same compound, the “Impurity RRT 0.935” value (5° C. 9M, hemi calcium salt) was 0.407, the “Impurity RRT 1.045” value (5° C. 9M, hemi calcium salt) was 0.407 and the “Impurity RRT 1.640” value (5° C. 9M, hemi calcium salt) was 0.033. For the same compound, the “Total Impurity” value (5° C. 9M, hemi calcium salt) was 1.362, the Water (5° C. 9M, hemi calcium salt) was 5.07 % W/W and the Description (5° C. 12M) was “White”. The “Impurity RRT 1.094” value (5° C. 12M) was 0.158, the “Impurity RRT 1.180” value (5° C. 12M) was 0.022 and the “Impurity RRT 1.437” value (5° C. 12M) was 0.152. The “Impurity RRT 1.593” value (5° C. 12M) was 0.086, the “Impurity RRT 1.694” value (5° C. 12M) was 0.068 and the Assay (5° C. 12M, hemi calcium salt) was 97.78 % W/W. The “Highest Impurity” value (5° C. 12M, hemi calcium salt) was 0.432, the “Impurity RRT 0.935” value (5° C. 12M, hemi calcium salt) was 0.417 and the “Impurity RRT 1.045” value (5° C. 12M, hemi calcium salt) was 0.432. The “Impurity RRT 1.640” value (5° C. 12M, hemi calcium salt) was 0.051, the “Total Impurity” value (5° C. 12M, hemi calcium salt) was 1.413 and the Water (5° C. 12M, hemi calcium salt) was 5.08 % W/W. For the same compound, the Assay (25° C./50% RH 6M) was 98.01 % W/W, the Description (25° C./50% RH 6M) was “White” and the “Highest Impurity” value (25° C./50% RH 6M) was 0.390. For the same compound, the “Impurity RRT 0.935” value (25° C./50% RH 6M) was 0.390, the “Impurity RRT 1.045” value (25° C./50% RH 6M) was 0.370 and the “Impurity RRT 1.094” value (25° C./50% RH 6M) was 0.140. For the same compound, the “Impurity RRT 1.437” value (25° C./50% RH 6M) was 0.117, the “Impurity RRT 1.593” value (25° C./50% RH 6M) was 0.073 and the “Impurity RRT 1.640” value (25° C./50% RH 6M) was 0.048. The “Impurity RRT 1.694” value (25° C./50% RH 6M) was 0.074, the “Total Impurity” value (25° C./50% RH 6M) was 1.212 and the Water (25° C./50% RH 6M) was 5.41 % W/W. The Description (25° C./60% RH 3M) was “White”, the “Impurity RRT 1.094” value (25° C./60% RH 3M) was 0.153 and the “Impurity RRT 1.437” value (25° C./60% RH 3M) was 0.155. The “Impurity RRT 1.593” value (25° C./60% RH 3M) was 0.079, the “Impurity RRT 1.694” value (25° C./60% RH 3M) was 0.064 and the Assay [1] was 98.21 % W/W. The “Highest Impurity” value [1] was 0.388, the “Impurity RRT 0.935” value [1] was 0.368 and the “Impurity RRT 1.045” value [1] was 0.382. For the same compound, the “Impurity RRT 1.64” value [1] was 0.047, the “Total Impurity” value [1] was 1.270 and the Water [1] was 4.03 % W/W. For the same compound, the Description (25° C./60% RH 9M) was “White”, the “Impurity RRT 1.094” value (25° C./60% RH 9M) was 0.141 and the “Impurity RRT 1.437” value (25° C./60% RH 9M) was 0.162. The “Impurity RRT 1.593” value (25° C./60% RH 9M) was 0.076, the “Impurity RRT 1.694” value (25° C./60% RH 9M) was 0.068 and the Assay [2] was 98.09 % W/W. The “Highest Impurity” value [2] was 0.376, the “Impurity RRT 0.935” value [2] was 0.374 and the “Impurity RRT 1.045” value [2] was 0.376. For the same compound, the “Impurity RRT 1.640” value [2] was 0.046, the “Total Impurity” value [2] was 1.243 and the Water [2] was 5.04 % W/W. The Description (25° C./60% RH 12M) was “White”, the “Impurity RRT 1.094” value (25° C./60% RH 12M) was 0.153 and the “Impurity RRT 1.180” value (25° C./60% RH 12M) was 0.019. For the same compound, the “Impurity RRT 1.437” value (25° C./60% RH 12M) was 0.145, the “Impurity RRT 1.593” value (25° C./60% RH 12M) was 0.083 and the “Impurity RRT 1.694” value (25° C./60% RH 12M) was 0.059. It also gave an Assay (25° C./60% RH 12M, hemi calcium salt) of 97.95 % W/W.
